Reference: publication PMC5216056 (Nature Communications, 2017)
Where two headings read alike, the source gives them in different places.

What was measured:
5-HT2B (h) = biological target: T1, 5-HT2B (h) (Homo sapiens, UniProt P41595); assay: CEREP panel; assay type: binding; conditions: 10 µM; for inhibition at 10 µM: read-out: % inhibition 5-HT2B (h)
T1 construct: CEREP (contract assay)

[1] = tested on: AEA reuptake in HaCaT cells; assay: cells; assay type: cell-based, human; conditions: for AEA reuptake % inhibition, effect at 10 µM, HaCaT cells / inhibition at 10 µM: 10 µM (values marked *); for IC50: read-out: AEA reuptake IC50 (95% CI) HaCaT cells; for inhibition at 10 µM: read-out: AEA reuptake % inhibition, effect at 10 µM, HaCaT cells; for AEA reuptake Efficacy (% inhibition) HaCaT cells: from dose-response
mCB2R = mCB2R (Mus musculus, UniProt P47936); assay: biochemical; assay type: biochemical; set-up: from tissue; host or cells: spleen of male C57BL/6J mice; conditions: for Emax: read-out: Emax cAMP mCB2R
mCB2R, sequence (P47936 whole entry): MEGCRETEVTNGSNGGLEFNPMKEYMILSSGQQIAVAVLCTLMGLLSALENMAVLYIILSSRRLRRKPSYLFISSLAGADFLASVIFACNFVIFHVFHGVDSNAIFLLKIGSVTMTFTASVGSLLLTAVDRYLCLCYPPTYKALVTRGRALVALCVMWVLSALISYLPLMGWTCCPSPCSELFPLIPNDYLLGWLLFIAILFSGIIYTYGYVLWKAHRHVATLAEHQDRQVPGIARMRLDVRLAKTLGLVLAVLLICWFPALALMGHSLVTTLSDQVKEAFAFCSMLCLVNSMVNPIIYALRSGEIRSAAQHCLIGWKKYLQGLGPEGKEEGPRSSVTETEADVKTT

human NAPE-PLD = biological target: T2, human NAPE-PLD (Homo sapiens, UniProt Q6IQ20); assay: NAPE-PLD inhibition; assay type: biochemical; conditions: for inhibition at 10 µM: read-out: NAPE-PLD % inhibition at 10 µM ± SD
T2 construct: Full length human cDNA NAPE-PLD was obtained from Natsuo Ueda; expressed in transfected cells; host or cells: HEK293T (transient), membrane fraction
T2 sequence (Q6IQ20 whole entry): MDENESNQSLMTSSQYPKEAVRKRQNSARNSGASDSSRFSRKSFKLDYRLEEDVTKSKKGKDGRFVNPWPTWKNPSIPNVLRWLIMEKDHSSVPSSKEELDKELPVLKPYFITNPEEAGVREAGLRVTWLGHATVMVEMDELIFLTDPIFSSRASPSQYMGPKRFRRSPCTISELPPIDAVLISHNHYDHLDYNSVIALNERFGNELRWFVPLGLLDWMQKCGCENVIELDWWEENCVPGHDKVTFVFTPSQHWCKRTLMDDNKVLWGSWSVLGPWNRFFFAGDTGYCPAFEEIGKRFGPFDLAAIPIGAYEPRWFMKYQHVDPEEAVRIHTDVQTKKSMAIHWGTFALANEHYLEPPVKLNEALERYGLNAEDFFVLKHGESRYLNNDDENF
Description: Full length human cDNA NAPE-PLD was obtained from Natsuo Ueda[58] and cloned into mammalian expression vector pcDNA3.1, containing a C-terminal Flag-tag and genes for ampicillin and neomycin resistance. All plasmids were grown in XL-10 Z-competent cells and prepped (Maxi Prep, Qiagen). Sequence analysis for the confirmation of the sequences was performed at the Leiden Genome Technology Centre.
HEK293T cells (source: Dutch Cancer Institute) were cultured at 37 °C and 7% CO2 in DMEM with glutamax, penicillin (100 μg ml^−1), streptomycin (100 μg ml^−1) and 10% New Born Calf Serum iron supplemented (Hyclone SH30072.03). Cells were passaged twice a week to appropriate confluence. Twenty-four hours before transfection 10^7 cells were seeded on a 15 cm dish. Two hours before transfection, the medium was refreshed. Transfection is performed with PEI in a ratio of 3:1 with human NAPE-PLD or Mock pcDNA3.1Neo, 20 μg per dish. Medium is refreshed after 24 h and cells are harvested after 72 h. Cell suspensions are centrifuged at 1,000g for 10 min, supernatant removed and pellets frozen at −80 °C until further use.
Cell pellets are re-suspended in lysis buffer 1: 20 mM Hepes, 2 mM DTT, 0.25 M sucrose, 1 mM MgCl2, 2.5 U ml^−1 benzonase and incubated 30 min on ice. The cytosolic fraction (supernatant) is separated from the membranes by ultra-centrifugation (32,000 rpm for 30 min 100,000g). The pellet is resuspended in buffer 2: 20 mM Hepes, 2 mM DTT (membrane fraction). All samples are stored at −80 °C. Enzyme concentrations are determined using a Bradford assay.
The membrane protein fraction from transient overexpression of NAPE-PLD in HEK293T cells was diluted to 0.4 mg ml^−1 in assay buffer: 50 mM Tris-HCl (pH 7.5), 0.02% Triton X-100, 150 mM NaCl (ref. [60]). […] Relevant concentrations of compounds are prepared in DMSO. The assay is performed in a dark Greiner 96-well plate, end volume 100 μl. The compound or DMSO is incubated with membrane protein lysate (final concentration 0.04 mg ml^−1) for 30 min at 37 °C. A sample without membrane protein lysate is incorporated for background subtraction. Then, substrate is added (final concentration 1 μM) and the measurement is started immediately on a TECAN infinite M1000 pro at 37 °C (excitation 485 nm, emission 535 nm), scanning every 2 min for 1 h.

GR (h) = biological target: T3, GR (h) (Homo sapiens, UniProt P04150); assay: CEREP panel; assay type: binding; conditions: 10 µM; for inhibition at 10 µM: read-out: % inhibition GR (h)
T3 construct: CEREP (contract assay)
T3 sequence (P04150 1-777): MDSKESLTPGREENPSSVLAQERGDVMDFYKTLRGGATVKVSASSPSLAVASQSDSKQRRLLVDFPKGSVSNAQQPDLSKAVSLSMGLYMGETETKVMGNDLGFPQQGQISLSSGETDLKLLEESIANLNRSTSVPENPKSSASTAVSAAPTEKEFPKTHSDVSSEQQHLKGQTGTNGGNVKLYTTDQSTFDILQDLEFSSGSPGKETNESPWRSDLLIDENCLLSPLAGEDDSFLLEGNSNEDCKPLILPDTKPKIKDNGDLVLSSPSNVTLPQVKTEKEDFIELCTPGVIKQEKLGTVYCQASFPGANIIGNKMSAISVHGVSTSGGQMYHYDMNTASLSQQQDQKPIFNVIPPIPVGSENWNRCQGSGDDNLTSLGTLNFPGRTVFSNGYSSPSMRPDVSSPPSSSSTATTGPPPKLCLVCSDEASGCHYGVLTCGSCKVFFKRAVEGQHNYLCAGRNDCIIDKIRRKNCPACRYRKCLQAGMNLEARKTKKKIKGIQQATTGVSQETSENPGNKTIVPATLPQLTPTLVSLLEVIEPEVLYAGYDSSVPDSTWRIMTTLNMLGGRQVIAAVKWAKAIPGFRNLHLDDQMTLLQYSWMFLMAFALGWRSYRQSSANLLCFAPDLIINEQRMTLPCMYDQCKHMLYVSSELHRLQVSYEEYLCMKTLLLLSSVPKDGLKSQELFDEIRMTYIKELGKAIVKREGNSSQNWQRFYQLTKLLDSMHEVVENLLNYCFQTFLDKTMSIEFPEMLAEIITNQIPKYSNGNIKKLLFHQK

hCB2R [2] = biological target: T4, hCB2R (Homo sapiens, UniProt P34972); assay: cell-based; assay type: cell-based; conditions: for Emax: read-out: Emax ± SEM β-AR recruitment hCB2R
T4 sequence (P34972 whole entry): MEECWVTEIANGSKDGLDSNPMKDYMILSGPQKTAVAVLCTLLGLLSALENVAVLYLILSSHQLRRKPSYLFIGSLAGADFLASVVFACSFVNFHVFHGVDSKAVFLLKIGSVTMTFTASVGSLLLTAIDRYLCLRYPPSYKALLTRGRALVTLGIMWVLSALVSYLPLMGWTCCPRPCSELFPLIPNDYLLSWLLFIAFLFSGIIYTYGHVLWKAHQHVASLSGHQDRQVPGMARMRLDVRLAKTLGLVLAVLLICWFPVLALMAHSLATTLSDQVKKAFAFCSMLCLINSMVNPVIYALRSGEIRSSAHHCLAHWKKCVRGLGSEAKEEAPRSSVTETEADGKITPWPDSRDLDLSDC

hCB2R [3] = biological target: T4, hCB2R; assay: biochemical; assay type: biochemical; set-up: expressed in transfected cells; host or cells: Flp-In-293 (Invitrogen #R750-07), pcDNA5/FRT; conditions: for Emax: read-out: Emax ± SEM GTPγS hCB2R
[4] = for Pampa Peff: membrane permeation coefficient; for Pct acceptor / Pct donor / Pct membrane: PAMPA; for Pct membrane: compound found in membranes
hCB2R [5] = biological target: T4, hCB2R; assay: cell-based; assay type: cell-based; set-up: expressed in transfected cells; host or cells: Flp-In-293 (Invitrogen #R750-07), pcDNA5/FRT; conditions: for Emax: read-out: Emax ± SEM cAMP hCB2R
[6] = mouse spleen, read-out: pEC50 ± SEM cAMP mCB2R (converted)

T1 sequence (P41595 whole entry): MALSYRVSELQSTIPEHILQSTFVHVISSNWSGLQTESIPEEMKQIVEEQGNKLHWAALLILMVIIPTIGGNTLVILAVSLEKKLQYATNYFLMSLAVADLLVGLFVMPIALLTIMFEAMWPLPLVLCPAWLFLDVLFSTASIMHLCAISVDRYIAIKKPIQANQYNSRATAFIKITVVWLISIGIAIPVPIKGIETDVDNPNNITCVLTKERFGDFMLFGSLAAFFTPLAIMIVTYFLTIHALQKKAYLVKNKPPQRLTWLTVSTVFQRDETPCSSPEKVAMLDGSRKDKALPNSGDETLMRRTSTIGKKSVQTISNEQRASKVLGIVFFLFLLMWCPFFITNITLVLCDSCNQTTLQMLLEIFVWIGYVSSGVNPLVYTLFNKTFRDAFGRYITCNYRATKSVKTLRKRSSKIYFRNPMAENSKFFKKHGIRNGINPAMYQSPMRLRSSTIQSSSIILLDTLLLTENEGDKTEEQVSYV

Row | Compound | AEA reuptake % inhibition, effect at 10 µM, HaCaT cells [1] [%] | IC50 [1] [nM] | pEC50 ± SEM cAMP mCB2R (mCB2R; mouse spleen) | NAPE-PLD % inhibition at 10 µM ± SD (human NAPE-PLD) [%] | % inhibition GR (h) (GR (h)) [%] | Emax (hCB2R [2]) [%] | IC50 ([1]; Homo sapiens, HaCaT) [nM] | Emax (hCB2R [3]) [%] | Emax (mCB2R) [%] | inhibition at 10 µM (human NAPE-PLD) [%] | Pampa Peff [4] [cm/s*10-6] | AEA reuptake Efficacy (% inhibition) HaCaT cells [1] [%] | Pct acceptor [4] [%] | Pct donor [4] [%] | Pct membrane [4] [%] | further results
1 | CCCn1c(C)c(C(=O)c2cccc3ccccc23)c2ccccc21 [JWH015] | 64 | > 5000 | 7.64 ± 0.24 | -4 ± 12 | 36 |  |  |  |  |  |  |  |  |  |  | % inhibition 5-HT2B (h) (5-HT2B (h)): 94%; Emax cAMP mCB2R (mCB2R; normalized to 10 µM CP55940): 93%
2 | CCCCCCC(C)(C)c1ccc([C@@H]2C[C@H](O)CC[C@H]2CCCO)c(O)c1 [CP55940] |  |  |  |  | 94 | 80 ± 5 | > 10000 | 95 ± 4 | 100 | 10 ± 8 | 0 |  |  |  |  | inhibition at 10 µM (5-HT2B (h)): 96%; inhibition at 10 µM ([1]; Homo sapiens, HaCaT): 13%; EC50 (mCB2R; [6]): 0.0676 nM; inhibition at 10 µM (GR (h)): 92%
3 | Cc1c(C(=O)NN2CCCCC2)nn(-c2ccc(Cl)cc2Cl)c1-c1ccc(Cl)cc1 [SR141716A] |  |  |  |  |  |  |  |  |  | 0 | 0.27±0.11 | 80 | 0.3 | 25.2 | 74.3 | inhibition at 10 µM (5-HT2B (h)): 16%; inhibition at 10 µM (GR (h)): 43%
4 | CN1CCCCC1Cn1cc(C(=O)c2cc([N+](=O)[O-])ccc2I)c2ccccc21 (racemic) [(rac)-AM1241] |  | 4010 | 7.03 ± 0.26 | 29 ± 11 |  |  |  |  |  |  | 1.86±0.62 | 80 |  | 41.3 | 55.7 | Emax ± SEM β-AR recruitment hCB2R (hCB2R [2]): 14 ± 2; pEC50 ± SEM β-AR recruitment hCB2R (hCB2R [2]): < 5; Emax ± SEM GTPγS hCB2R (hCB2R [3]): 56 ± 9; hCB2R Selectivity GTPγS (hCB2R [3]): 0.03; pEC50 ± SEM GTPγS hCB2R (hCB2R [3]): 6.89 ± 0.66; Emax cAMP mCB2R (mCB2R): -6; Emax ± SEM cAMP hCB2R (hCB2R [5]): 67 ± 3; pEC50 ± SEM cAMP hCB2R (hCB2R [5]): 8.49± 0.08
5 | Cc1c(C(=O)c2cccc3ccccc23)c2cccc3c2n1[C@H](CN1CCOCC1)CO3 [WIN55212-2] | 24 | > 5000 | 8.37 ± 0.23 | 8 ± 6 | 63 |  |  |  |  |  | 0.25±0.22 |  | 0.5 | 50.6 | 49 | % inhibition 5-HT2B (h) (5-HT2B (h)): 70%; Emax cAMP mCB2R (mCB2R; normalized to 10 µM CP55940): 97%
6 | CCCCC/C=C\C/C=C\C/C=C\C/C=C\CCCC(=O)OC(CO)CO [2-AG, 2-arachidonoyl glycerol] |  |  |  |  |  | 80 ± 21 | > 5000 | 57 ± 11 | 53 | -1 ± 12 |  |  |  |  |  | EC50 (hCB2R [2]): 2000 nM; inhibition at 10 µM ([1]; Homo sapiens, HaCaT): 60%; EC50 (hCB2R [3]; read-out: pEC50 ± SEM GTPγS hCB2R (converted)): 646 nM; EC50 (mCB2R; [6]): 70.8 nM; Emax (hCB2R [5]): 94 ± 1%
7 | CCCCC/C=C\C/C=C\C/C=C\C/C=C\CCCC(=O)NCCO [Anandamide, N-arachidonoylethanolamine] |  |  |  |  |  | 38 ± 3 | 270 | 31 ± 4 | 48 | 17 ± 9 | 0.26 | 86 | 1.2 | 96.3 | 2.7 | EC50 (mCB2R): 151 nM; Emax (hCB2R [5]): 87 ± 7%
8 | CN1CCCC[C@@H]1Cn1cc(C(=O)c2cc([N+](=O)[O-])ccc2I)c2ccccc21 [(R)-AM1241] | 25 | > 5000 | 6.17 ± 0.23 | 21 ± 5 |  |  |  |  |  |  | 1.22 |  | 2.1 | 38.3 | 59.7 | Emax ± SEM β-AR recruitment hCB2R (hCB2R [2]): 29 ± 4; pEC50 ± SEM β-AR recruitment hCB2R (hCB2R [2]): 7.52 ± 0.43; CB2R Selectivity β-AR recruitment (hCB2R [2]; 10^(pEC50 CB2R-pEC50 CB1R)): 86 fold; Emax ± SEM GTPγS hCB2R (hCB2R [3]): 33 ± 2; pEC50 ± SEM GTPγS hCB2R (hCB2R [3]): 7.40 ± 0.50; hCB2R Selectivity GTPγS (hCB2R [3]; 10^(pEC50 CB2R-pEC50 CB1R)): 4 fold; Emax cAMP mCB2R (mCB2R): -22; CB2R Selectivity cAMP (mouse) (mCB2R; 10^(pEC50 CB2R-pEC50 CB1R)): 12 fold; Emax ± SEM cAMP hCB2R (hCB2R [5]): 65 ± 2; pEC50 ± SEM cAMP hCB2R (hCB2R [5]): 8.76 ± 0.18; CB2R Selectivity cAMP (human) (hCB2R [5]; 10^(pEC50 CB2R-pEC50 CB1R)): 391 fold
